Assay: recombinant barcode read abundance after kanamycin selection (control-corrected) (log10(CPM+1)); higher = more efficient recombination; sequences stand for … in AGTGCAGAGAAAATCGGCCAGTTTTCTCTGCCTGCAGTCCGCATGCCGT…ATTTATGCAGCGGACTGCCTTTCTCCCAAAGTGATAAACCGGACAGTATCATGGACCGGTTTTCCCGGTAATCCGTATTTGCAAGGTTGGTTTCACT; site = the 11-nt target
Procedure: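 Same pooled E. coli target screen (IS621 bridge recombinase, kanamycin selection, control-corrected CPM, mean of 2 biological replicates). Here the two core-binding nucleotides of the LTG and RTG of the bridge RNA target-binding loop are mutated. Target and donor CT cores are held constant, and the other 9 guide positions match the target. The target is read from the library oligo sequence. Molecule = full bridge RNA written as DNA: nt 1-80 from the library oligo, rest WT scaffold.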

Sequence | recombinant barcode read abundance (log10)
ACGGGACGGTGGGTTCTAACCTGTTGCAGAG [ACGGGACCTCT_LTGcore_GG_RTGcore_CT] (site ACGGGACCTCT) (LTG core: GG, RTG core: CT) | 0.14
ACGGGACTGTGGGTTCTAACCTGTTGCAGAG [ACGGGACCTCT_LTGcore_TG_RTGcore_CT] (site ACGGGACCTCT) (LTG core: TG, RTG core: CT) | 0.397
ACGGGACTGTGGGTTCTAACCTGTTGCAGCA [ACGGGACCTCT_LTGcore_TG_RTGcore_TG] (site ACGGGACCTCT) (LTG core: TG, RTG core: TG) | 0.179
ACGGGACTTTGGGTTCTAACCTGTTGCAGAA [ACGGGACCTCT_LTGcore_TT_RTGcore_TT] (site ACGGGACCTCT) (LTG core: TT, RTG core: TT) | 0.0398
ACGGGACTTTGGGTTCTAACCTGTTGCAGAG [ACGGGACCTCT_LTGcore_TT_RTGcore_CT] (site ACGGGACCTCT) (LTG core: TT, RTG core: CT) | 0.0241
AGGAGGTAATGGGTTCTAACCTGTTGCCTAG [AGGAGGTCTAG_LTGcore_AA_RTGcore_CT] (site AGGAGGTCTAG) (LTG core: AA, RTG core: CT) | 0.278
AGGAGGTAGTGGGTTCTAACCTGTTGCCTAG [AGGAGGTCTAG_LTGcore_AG_RTGcore_CT] (site AGGAGGTCTAG) (LTG core: AG, RTG core: CT) | 0.122
AGGAGGTCTTGGGTTCTAACCTGTTGCCTGC [AGGAGGTCTAG_LTGcore_CT_RTGcore_GC] (site AGGAGGTCTAG) (LTG core: CT, RTG core: GC) | 0.814
AGGAGGTCTTGGGTTCTAACCTGTTGCCTGG [AGGAGGTCTAG_LTGcore_CT_RTGcore_CC] (site AGGAGGTCTAG) (LTG core: CT, RTG core: CC) | 0.551
AGGAGGTGATGGGTTCTAACCTGTTGCCTAG [AGGAGGTCTAG_LTGcore_GA_RTGcore_CT] (site AGGAGGTCTAG) (LTG core: GA, RTG core: CT) | 0.417
AGGAGGTTATGGGTTCTAACCTGTTGCCTAG [AGGAGGTCTAG_LTGcore_TA_RTGcore_CT] (site AGGAGGTCTAG) (LTG core: TA, RTG core: CT) | 0.0987
AGGAGGTTTTGGGTTCTAACCTGTTGCCTAG [AGGAGGTCTAG_LTGcore_TT_RTGcore_CT] (site AGGAGGTCTAG) (LTG core: TT, RTG core: CT) | 0.0313
AGGCCTCCATGGGTTCTAACCTGTTGCCTAG [AGGCCTCCTAG_LTGcore_CA_RTGcore_CT] (site AGGCCTCCTAG) (LTG core: CA, RTG core: CT) | 0.44
AGGCCTCCTTGGGTTCTAACCTGTTGCCTAG [AGGCCTCCTAG_LTGcore_CT_RTGcore_CT] (site AGGCCTCCTAG) (LTG core: CT, RTG core: CT) | 1.32
AGGCCTCCTTGGGTTCTAACCTGTTGCCTCG [AGGCCTCCTAG_LTGcore_CT_RTGcore_CG] (site AGGCCTCCTAG) (LTG core: CT, RTG core: CG) | 0.401
AGGCCTCCTTGGGTTCTAACCTGTTGCCTTT [AGGCCTCCTAG_LTGcore_CT_RTGcore_AA] (site AGGCCTCCTAG) (LTG core: CT, RTG core: AA) | 0.116

Sequence | recombinant barcode read abundance (log10)
AGGCCTCGATGGGTTCTAACCTGTTGCCTAG [AGGCCTCCTAG_LTGcore_GA_RTGcore_CT] (site AGGCCTCCTAG) (LTG core: GA, RTG core: CT) | 0.24
AGGCCTCGTTGGGTTCTAACCTGTTGCCTAG [AGGCCTCCTAG_LTGcore_GT_RTGcore_CT] (site AGGCCTCCTAG) (LTG core: GT, RTG core: CT) | 0.148
AGGCCTCTGTGGGTTCTAACCTGTTGCCTAG [AGGCCTCCTAG_LTGcore_TG_RTGcore_CT] (site AGGCCTCCTAG) (LTG core: TG, RTG core: CT) | 0.11
AGGCGGGAGTGGGTTCTAACCTGTTGCGGCT [AGGCGGGCTCC_LTGcore_AG_RTGcore_AG] (site AGGCGGGCTCC) (LTG core: AG, RTG core: AG) | 0.0482
AGGCGGGATTGGGTTCTAACCTGTTGCGGAG [AGGCGGGCTCC_LTGcore_AT_RTGcore_CT] (site AGGCGGGCTCC) (LTG core: AT, RTG core: CT) | 0.447
AGGCGGGATTGGGTTCTAACCTGTTGCGGAT [AGGCGGGCTCC_LTGcore_AT_RTGcore_AT] (site AGGCGGGCTCC) (LTG core: AT, RTG core: AT) | 0.178
AGGCGGGCTTGGGTTCTAACCTGTTGCGGCA [AGGCGGGCTCC_LTGcore_CT_RTGcore_TG] (site AGGCGGGCTCC) (LTG core: CT, RTG core: TG) | 0.0958
AGGCGGGCTTGGGTTCTAACCTGTTGCGGCT [AGGCGGGCTCC_LTGcore_CT_RTGcore_AG] (site AGGCGGGCTCC) (LTG core: CT, RTG core: AG) | 0.172
AGGCGGGCTTGGGTTCTAACCTGTTGCGGTA [AGGCGGGCTCC_LTGcore_CT_RTGcore_TA] (site AGGCGGGCTCC) (LTG core: CT, RTG core: TA) | 0.138
AGGCGGGCTTGGGTTCTAACCTGTTGCGGTG [AGGCGGGCTCC_LTGcore_CT_RTGcore_CA] (site AGGCGGGCTCC) (LTG core: CT, RTG core: CA) | 0.201
AGGCGGGGATGGGTTCTAACCTGTTGCGGAG [AGGCGGGCTCC_LTGcore_GA_RTGcore_CT] (site AGGCGGGCTCC) (LTG core: GA, RTG core: CT) | 0.555
AGGCGGGTCTGGGTTCTAACCTGTTGCGGAG [AGGCGGGCTCC_LTGcore_TC_RTGcore_CT] (site AGGCGGGCTCC) (LTG core: TC, RTG core: CT) | 0.95
AGGCGGGTGTGGGTTCTAACCTGTTGCGGCA [AGGCGGGCTCC_LTGcore_TG_RTGcore_TG] (site AGGCGGGCTCC) (LTG core: TG, RTG core: TG) | 0.0694
AGGCGGTACTGGGTTCTAACCTGTTGCTTGT [AGGCGGTCTAA_LTGcore_AC_RTGcore_AC] (site AGGCGGTCTAA) (LTG core: AC, RTG core: AC) | 0.166
AGGCGGTCATGGGTTCTAACCTGTTGCTTAG [AGGCGGTCTAA_LTGcore_CA_RTGcore_CT] (site AGGCGGTCTAA) (LTG core: CA, RTG core: CT) | 0.322
AGGCGGTCGTGGGTTCTAACCTGTTGCTTCG [AGGCGGTCTAA_LTGcore_CG_RTGcore_CG] (site AGGCGGTCTAA) (LTG core: CG, RTG core: CG) | 0.228
